{"source": "patent US20070172957A1", "about": "“Methods of identifying anti-inflammatory macrolides” (TAISHO PHARMACEUTICAL CO., LTD., priority 2004, published 2007)", "tested_on": "genes predictive for the anti-inflammatory macrolide effect", "assay": "Genes statistically predictive of Clari response: differentially expressed with Clari but not the inactive macrolides MAA or Josa (Appendix E)", "assay_type": "cell-based", "excerpt": "In the case of the above-mentioned (i) related to arachidonic acid biosynthesis, specifically, methods of the embodiment involve assaying whether a test macrolide alters biosynthesis of arachidonic acid, alters the expression or activities of enzymes involved in the biosynthesis or activation of arachidonic acid (e.g., arachidonic acid CoA synthetase, delta-6 desaturase, fatty acid elongase, and delta-5 desaturase, AA-related genes in Tables 2 and 3), or alters the expression of genes identified as predictive for the anti-inflammatory macrolide effect (Appendix E). Assays in which arachidonic acid or gene expression or enzymatic activity is detected can be carried out after contacting a cell with a test macrolide. Any cell line that secretes prostaglandin or produces arachidonic acid can be used. Epithelial and macrophages lines (e.g., A549 or THP-1) are suitable for this purpose; other cell lines can be identified by carrying out assays such as those described in the specific Examples, below. Alternatively, screening assays can be carried out after adding a test macrolide to an in vitro cell system (e.g., a cellular extract or liver microsome preparation) or an in vitro enzyme assay system.", "data": [{"compound": "CC[C@H]1OC(=O)[C@H](C)[C@@H](O[C@H]2C[C@@](C)(OC)[C@@H](O)[C@H](C)O2)[C@H](C)[C@@H](O[C@@H]2O[C@H](C)C[C@H](N(C)C)[C@H]2O)[C@](C)(OC)C[C@@H](C)C(=O)[C@H](C)[C@@H](O)[C@]1(C)O", "note": "[clarithromycin]", "values": [{"measurement": "group mean, gene SERPING1", "setting": "SpotID 46579, MAA and Josa vs. Clari", "value": 0.86}, {"measurement": "group mean, gene C12orf8", "setting": "SpotID 46586, MAA and Josa vs. Clari", "value": 1.22}, {"measurement": "mean group, FLJ20699", "setting": "SpotID 46633, pooled group mean", "value": 0.81}, {"measurement": "mean group, ARHGAP1", "setting": "SpotID 46648, pooled group mean", "value": 0.96}, {"measurement": "group mean, gene KIAA1172", "setting": "SpotID 46679, MAA and Josa vs. Clari", "value": 0.91}, {"measurement": "mean group, KIAA1172", "setting": "SpotID 46679, pooled group mean", "value": 0.92}, {"measurement": "group mean, gene MKNK2", "setting": "SpotID 46825, MAA and Josa vs. Clari", "value": 1.15}, {"measurement": "mean group, MKNK2", "setting": "SpotID 46825, pooled group mean", "value": 1.12}, {"measurement": "group mean, gene PRKAR1A", "setting": "SpotID 46838, MAA and Josa vs. Clari", "value": 0.92}, {"measurement": "group mean, gene ARHGDIA", "setting": "SpotID 46843, MAA and Josa vs. Clari", "value": 0.91}, {"measurement": "mean group, ARHGDIA", "setting": "SpotID 46843, pooled group mean", "value": 0.93}, {"measurement": "group mean, gene HEXA", "setting": "SpotID 46882, MAA and Josa vs. Clari", "value": 1.14}, {"measurement": "group mean, gene CDIPT", "setting": "SpotID 46896, MAA and Josa vs. Clari", "value": 1.04}, {"measurement": "mean group, CDIPT", "setting": "SpotID 46896, pooled group mean", "value": 1.01}, {"measurement": "mean group, PACE", "setting": "SpotID 46923, pooled group mean", "value": 1.09}, {"measurement": "group mean, gene METAP2", "setting": "SpotID 46935, MAA and Josa vs. Clari", "value": 0.88}, {"measurement": "mean group, METAP2", "setting": "SpotID 46935, pooled group mean", "value": 0.89}, {"measurement": "group mean, gene HSPBP1", "setting": "SpotID 46979, MAA and Josa vs. Clari", "value": 0.87}, {"measurement": "mean group, EREG", "setting": "SpotID 46988, pooled group mean", "value": 0.85}, {"measurement": "group mean, gene TFPI2", "setting": "SpotID 46991, MAA and Josa vs. Clari", "value": 0.57}, {"measurement": "group mean, gene C2orf3", "setting": "SpotID 47034, MAA and Josa vs. Clari", "value": 0.87}, {"measurement": "mean group, C2orf3", "setting": "SpotID 47034, pooled group mean", "value": 0.90}, {"measurement": "group mean, gene NFRKB", "setting": "SpotID 47056, MAA and Josa vs. Clari", "value": 0.82}, {"measurement": "group mean, gene GOLGB1", "setting": "SpotID 47111, MAA and Josa vs. Clari", "value": 1.17}, {"measurement": "group mean, gene MCM2", "setting": "SpotID 47123, MAA and Josa vs. Clari", "value": 0.78}, {"measurement": "group mean, gene KIAA0251", "setting": "SpotID 47131, MAA and Josa vs. Clari", "value": 1.07}, {"measurement": "group mean, gene ARHGAP1", "setting": "SpotID 47192, MAA and Josa vs. Clari", "value": 0.94}, {"measurement": "group mean, gene ITGB5", "setting": "SpotID 47212, MAA and Josa vs. Clari", "value": 1.12}, {"measurement": "mean group, NUBP1", "setting": "SpotID 47241, pooled group mean", "value": 0.95}, {"measurement": "group mean, gene AKR1A1", "setting": "SpotID 47249, MAA and Josa vs. Clari", "value": 1.08}, {"measurement": "group mean, gene HKE4", "setting": "SpotID 47251, MAA and Josa vs. Clari", "value": 1.13}, {"measurement": "mean group, EPOR", "setting": "SpotID 47314, pooled group mean", "value": 1.14}, {"measurement": "group mean, gene ADAM11", "setting": "SpotID 47352, MAA and Josa vs. Clari", "value": 1.18}, {"measurement": "mean group, ADAM11", "setting": "SpotID 47352, pooled group mean", "value": 1.10}, {"measurement": "group mean, gene ERF", "setting": "SpotID 47354, MAA and Josa vs. Clari", "value": 1.00}, {"measurement": "mean group, P4HB", "setting": "SpotID 47366, pooled group mean", "value": 1.18}, {"measurement": "group mean, gene MTHFD1", "setting": "SpotID 47406, MAA and Josa vs. Clari", "value": 0.93}, {"measurement": "mean group, CETN2", "setting": "SpotID 47415, pooled group mean", "value": 1.18}, {"measurement": "group mean, gene SNK", "setting": "SpotID 47418, MAA and Josa vs. Clari", "value": 0.77}, {"measurement": "mean group, SNK", "setting": "SpotID 47418, pooled group mean", "value": 0.82}, {"measurement": "mean group, GCS1", "setting": "SpotID 47432, pooled group mean", "value": 1.02}, {"measurement": "group mean, gene DCTN1", "setting": "SpotID 47439, MAA and Josa vs. Clari", "value": 0.93}, {"measurement": "mean group, DCTN1", "setting": "SpotID 47439, pooled group mean", "value": 0.95}, {"measurement": "group mean, gene RANBP1", "setting": "SpotID 47446, MAA and Josa vs. Clari", "value": 0.83}, {"measurement": "mean group, RANBP1", "setting": "SpotID 47446, pooled group mean", "value": 0.89}, {"measurement": "mean group, MSH3", "setting": "SpotID 47504, pooled group mean", "value": 0.99}, {"measurement": "mean group, SERPINA1", "setting": "SpotID 47522, pooled group mean", "value": 0.95}, {"measurement": "group mean, gene PTK2B", "setting": "SpotID 47524, MAA and Josa vs. Clari", "value": 1.08}, {"measurement": "group mean, gene ARHGDIA", "setting": "SpotID 47535, MAA and Josa vs. Clari", "value": 0.91}, {"measurement": "group mean, gene TRAP1", "setting": "SpotID 47622, MAA and Josa vs. Clari", "value": 0.89}, {"measurement": "mean group, TRAP1", "setting": "SpotID 47622, pooled group mean", "value": 0.94}, {"measurement": "group mean, gene HSPA9B", "setting": "SpotID 47661, MAA and Josa vs. Clari", "value": 0.90}, {"measurement": "mean group, NR4A2", "setting": "SpotID 47679, pooled group mean", "value": 1.14}, {"measurement": "group mean, gene HSPA9B", "setting": "SpotID 47694, MAA and Josa vs. Clari", "value": 0.90}, {"measurement": "mean group, HSPA9B", "setting": "SpotID 47694, pooled group mean", "value": 0.95}, {"measurement": "group mean, gene MAD4", "setting": "SpotID 47705, MAA and Josa vs. Clari", "value": 1.42}, {"measurement": "group mean, gene NBS1", "setting": "SpotID 47754, MAA and Josa vs. Clari", "value": 0.89}, {"measurement": "mean group, NBS1", "setting": "SpotID 47754, pooled group mean", "value": 0.97}, {"measurement": "group mean, gene KIAA1922", "setting": "SpotID 47755, MAA and Josa vs. Clari", "value": 0.79}, {"measurement": "group mean, gene POLA", "setting": "SpotID 47776, MAA and Josa vs. Clari", "value": 0.86}, {"measurement": "mean group, POLA", "setting": "SpotID 47776, pooled group mean", "value": 0.89}, {"measurement": "group mean, gene BET3", "setting": "SpotID 47793, MAA and Josa vs. Clari", "value": 1.08}, {"measurement": "group mean, gene GOT1", "setting": "SpotID 47802, MAA and Josa vs. Clari", "value": 0.93}, {"measurement": "mean group, GOT1", "setting": "SpotID 47802, pooled group mean", "value": 0.94}, {"measurement": "group mean, gene ENTPD6", "setting": "SpotID 47811, MAA and Josa vs. Clari", "value": 1.11}, {"measurement": "mean group, ENTPD6", "setting": "SpotID 47811, pooled group mean", "value": 1.06}, {"measurement": "mean group, SSI-1", "setting": "SpotID 47846, pooled group mean", "value": 0.93}, {"measurement": "group mean, gene PRLR", "setting": "SpotID 47850, MAA and Josa vs. Clari", "value": 0.99}, {"measurement": "mean group, PRLR", "setting": "SpotID 47850, pooled group mean", "value": 0.99}, {"measurement": "group mean, gene ERF", "setting": "SpotID 47898, MAA and Josa vs. Clari", "value": 1.01}, {"measurement": "group mean, gene YWHAE", "setting": "SpotID 47911, MAA and Josa vs. Clari", "value": 0.95}, {"measurement": "group mean, gene CCNE2", "setting": "SpotID 47926, MAA and Josa vs. Clari", "value": 0.73}, {"measurement": "group mean, gene P4HA1", "setting": "SpotID 47935, MAA and Josa vs. Clari", "value": 1.27}, {"measurement": "mean group, P4HA1", "setting": "SpotID 47935, pooled group mean", "value": 1.18}, {"measurement": "group mean, gene CTSB", "setting": "SpotID 47937, MAA and Josa vs. Clari", "value": 1.15}, {"measurement": "group mean, gene INPP5E", "setting": "SpotID 47939, MAA and Josa vs. Clari", "value": 0.89}, {"measurement": "group mean, gene SF3B3", "setting": "SpotID 47947, MAA and Josa vs. Clari", "value": 0.93}]}]}
